This note sets out measurements from ChEMBL document CHEMBL1139134, “Synthesis and cytotoxic activity of 17-carboxylic acid modified 23-hydroxy betulinic acid ester derivatives” (Bioorg Med Chem Lett, 2007).

One assay deals with A549. Briefly: Cytotoxicity against human A549 cells by MTT assay. The format is functional, cell-based.
The next assay relates to C6. Briefly: Cytotoxicity against […] by MTT assay.
Assay [1] is described as follows: Cytotoxicity against human SF763 cells by MTT assay. The format is functional, cell-based.
The test system of assay [2] is B16. Briefly: Cytotoxicity against mouse B16 cells by MTT assay. The format is functional, cell-based.
In the next assay the test system is Bel-7402. Briefly: Cytotoxicity against human BEL-7402 cells by MTT assay. The format is functional, cell-based.
The test system of assay [3] is H22. Description: Antitumor activity in H22 cells xenografted ICR mouse assessed as tumor growth inhibition at 30 mg/kg, iv after 4 days. The note with it: 96 h, read-out: Inhibition.
Assay [4] deals with H22. Briefly: Antitumor activity in H22 cells xenografted ICR mouse assessed as tumor weight at 20 mg/kg, ip after 4 days. The format is functional. The note with it: route intraperitoneal.
Assay [5] concerns B16. Description: Antitumor activity in B16 cells xenografted ICR mouse assessed as tumor weight at 20 mg/kg, ip after 11 days. Type of assay: functional. The note with it: route intraperitoneal.
Assay [6] deals with B16. Briefly: Antitumor activity in B16 cells xenografted ICR mouse assessed as tumor growth inhibition at 20 mg/kg, ip after 11 days. The note with it: 264 h, route intraperitoneal. The format is functional.
Assay [7] concerns H22. Briefly: Antitumor activity in H22 cells xenografted ICR mouse assessed as tumor growth inhibition at 20 mg/kg, ip after 4 days. Type of assay: functional. The note with it: 96 h, route intraperitoneal.
The test system of assay [8] is B16. Briefly: Antitumor activity in B16 cells xenografted ICR mouse assessed as tumor weight at 25 mg/kg, iv after 11 days. Type of assay: functional.
For assay [9], the system named is B16. Description: Antitumor activity in B16 cells xenografted ICR mouse assessed as tumor growth inhibition at 25 mg/kg, iv after 11 days. As to conditions: B16, 264 h. Type of assay: functional.

`C=C(C)[C@@H]1CC[C@]2(C(=O)OCC#CC)CC[C@]3(C)[C@H](CC[C@@H]4[C@@]5(C)CC[C@H](O)[C@@](C)(CO)[C@@H]5CC[C@]43C)[C@@H]12`: the IC50 in the assay on A549 came out at 81.1 µM; in the assay on C6, 75.9 µM; in assay [1] it was 64.3 µM; in the assay with B16 [2] it was 63.1 µM; in the assay on Bel-7402, 53 µM.
Take `O=P1(N(CCCl)CCCl)NCCCO1` (configuration not stated) [CYCLOPHOSPHAMIDE ANHYDROUS]: the inhibition in vivo at 30 mg/kg in the assay on H22 [3] came to 56.3%.
`C=C(C)[C@@H]1CC[C@]2(C(=O)O)CC[C@]3(C)[C@H](CC[C@@H]4[C@@]5(C)CC[C@H](O)C(C)(C)[C@@H]5CC[C@]43C)[C@@H]12` [BETULINIC ACID]: the IC50 with A549 came to 97.5 µM; in the assay on C6, 90.7 µM; in assay [1] it was 92.1 µM; with B16 [2], 53.5 µM; in the assay with Bel-7402, 43.4 µM.
`C=C(C)[C@@H]1CC[C@]2(C(=O)O)CC[C@]3(C)[C@H](CC[C@@H]4[C@@]5(C)CC[C@H](O)[C@@](C)(CO)[C@@H]5CC[C@]43C)[C@@H]12`: the IC50 worked out at 87.6 µM in the assay with A549; 99.5 µM in the assay with C6; 105 µM in [1]; 83 µM with B16 [2]; 97.3 µM in the assay on Bel-7402. Further, the Activity stood at 1.42 g in the assay with H22 [4] and 1.76 g in the assay on B16 [5]. The figures for the inhibition in vivo at 20 mg/kg in the assay with B16 [6] and with H22 [7] were 13.3% and 10.1%, respectively.
Regarding `O=c1[nH]cc(F)c(=O)[nH]1` [FLUOROURACIL], the Activity with B16 [8] amounted to 0.56 g. The inhibition in vivo at 25 mg/kg in the assay on B16 [9] is 72.4%.
